Data reported in PubChem BioAssay (NCI).
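Test compounds were applied to cells in 96-well plates for 48 hours at 5 doses. TGI: total growth inhibition.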

Key:
Test in all cases: inhibition of tumour cell growth, NCI panel, 48 h
786-0 renal = system: 786-0 renal
A498 renal = system: A498 renal
A549 NSCLC = system: A549 NSCLC
ACHN renal = system: ACHN renal
BT-549 breast = system: BT-549 breast
CAKI-1 renal = system: CAKI-1 renal
CCRF-CEM leukemia = system: CCRF-CEM leukemia
COLO 205 colon = system: COLO 205 colon
DU-145 prostate = system: DU-145 prostate
EKVX NSCLC = system: EKVX NSCLC
HCC-2998 colon = system: HCC-2998 colon
HCT-116 colon = system: HCT-116 colon
HCT-15 colon = system: HCT-15 colon
HL-60(TB) leukemia = system: HL-60(TB) leukemia
HOP-62 NSCLC = system: HOP-62 NSCLC
HOP-92 NSCLC = system: HOP-92 NSCLC
HS 578T breast = system: HS 578T breast
HT29 colon = system: HT29 colon
IGROV1 ovarian = system: IGROV1 ovarian
K-562 leukemia = system: K-562 leukemia
KM12 colon = system: KM12 colon
LOX IMVI melanoma = system: LOX IMVI melanoma
M14 melanoma = system: M14 melanoma
MALME-3M melanoma = system: MALME-3M melanoma
MCF7 breast = system: MCF7 breast
MDA-MB-231 breast = system: MDA-MB-231 breast
MDA-MB-435 = system: MDA-MB-435
MDA-N = system: MDA-N
NCI-H226 lung = system: NCI-H226 lung
NCI-H23 lung = system: NCI-H23 lung
NCI-H460 lung = system: NCI-H460 lung
NCI-H522 lung = system: NCI-H522 lung
NCI/ADR-RES ovarian = system: NCI/ADR-RES ovarian
OVCAR-3 ovarian = system: OVCAR-3 ovarian
OVCAR-4 ovarian = system: OVCAR-4 ovarian
OVCAR-5 ovarian = system: OVCAR-5 ovarian
OVCAR-8 ovarian = system: OVCAR-8 ovarian
PC-3 prostate = system: PC-3 prostate
SF-268 CNS = system: SF-268 CNS
SF-295 CNS = system: SF-295 CNS
SF-539 CNS = system: SF-539 CNS
SK-MEL-2 melanoma = system: SK-MEL-2 melanoma
SK-MEL-28 melanoma = system: SK-MEL-28 melanoma
SK-MEL-5 melanoma = system: SK-MEL-5 melanoma
SK-OV-3 ovarian = system: SK-OV-3 ovarian
SN12C renal = system: SN12C renal
SNB-19 CNS = system: SNB-19 CNS
SNB-75 CNS = system: SNB-75 CNS
SR leukemia = system: SR leukemia
SW-620 colon = system: SW-620 colon
T-47D breast = system: T-47D breast
TK-10 renal = system: TK-10 renal
U251 CNS = system: U251 CNS
UACC-257 melanoma = system: UACC-257 melanoma
UACC-62 melanoma = system: UACC-62 melanoma
UO-31 renal = system: UO-31 renal
MOLT-4 leukemia = system: MOLT-4 leukemia
RPMI-8226 leukemia = system: RPMI-8226 leukemia
RXF 393 renal = system: RXF 393 renal

## O=C(c1ccccc1)N1CCN(C(=S)N(C(=O)c2ccccc2)c2ccccc2)C1=S
786-0 renal
  TGI: 5.31 µM
A498 renal
  TGI: 13.4 µM
A549 NSCLC
  TGI: 19.1 µM
ACHN renal
  TGI: 7.2 µM
BT-549 breast
  TGI: 13.7 µM
CAKI-1 renal
  TGI: 7.5 µM
CCRF-CEM leukemia
  TGI: > 25.8 µM
COLO 205 colon
  TGI: 13.2 µM
DU-145 prostate
  TGI: 10.6 µM
EKVX NSCLC
  TGI: 19.5 µM
HCC-2998 colon
  TGI: 14.5 µM
HCT-116 colon
  TGI: 12.6 µM
HCT-15 colon
  TGI: 7.76 µM
HL-60(TB) leukemia
  TGI: 3.81 µM
HOP-62 NSCLC
  TGI: 26.3 µM
HOP-92 NSCLC
  TGI: 20 µM
HS 578T breast
  TGI: > 27.1 µM
HT29 colon
  TGI: 31.2 µM
IGROV1 ovarian
  TGI: 12.6 µM
K-562 leukemia
  TGI: > 100 µM
KM12 colon
  TGI: 20.5 µM
LOX IMVI melanoma
  TGI: 3.67 µM
M14 melanoma
  TGI: 9.51 µM
MALME-3M melanoma
  TGI: 19.1 µM
MCF7 breast
  TGI: 10 µM
MDA-MB-231 breast
  TGI: > 42.5 µM
MDA-MB-435
  TGI: 12.2 µM
MDA-N
  TGI: 17.1 µM
NCI-H226 lung
  TGI: 32 µM
NCI-H23 lung
  TGI: 11.6 µM
NCI-H460 lung
  TGI: 44.7 µM
NCI-H522 lung
  TGI: 6.9 µM
NCI/ADR-RES ovarian
  TGI: > 27.7 µM
OVCAR-3 ovarian
  TGI: 15.4 µM
OVCAR-4 ovarian
  TGI: 10.9 µM
OVCAR-5 ovarian
  TGI: 42.1 µM
OVCAR-8 ovarian
  TGI: 13.3 µM
PC-3 prostate
  TGI: 20.5 µM
SF-268 CNS
  TGI: 14.7 µM
SF-295 CNS
  TGI: 31.6 µM
SF-539 CNS
  TGI: 7.07 µM
SK-MEL-2 melanoma
  TGI: 23.5 µM
SK-MEL-28 melanoma
  TGI: 9.55 µM
SK-MEL-5 melanoma
  TGI: 26.5 µM
SK-OV-3 ovarian
  TGI: 30.2 µM
SN12C renal
  TGI: 12.2 µM
SNB-19 CNS
  TGI: 26.3 µM
SNB-75 CNS
  TGI: 6.56 µM
SR leukemia
  TGI: > 100 µM
SW-620 colon
  TGI: > 43.5 µM
T-47D breast
  TGI: > 31.9 µM
TK-10 renal
  TGI: 16.6 µM
U251 CNS
  TGI: 22.6 µM
UACC-257 melanoma
  TGI: 22.4 µM
UACC-62 melanoma
  TGI: 11.4 µM
UO-31 renal
  TGI: 6.43 µM

## CCN(CC)CC1CCCCN1CC(=O)N1c2ccccc2NC(=O)CC1C (configuration not stated)
786-0 renal
  TGI: > 100 µM
A498 renal
  TGI: > 100 µM
A549 NSCLC
  TGI: > 100 µM
ACHN renal
  TGI: > 100 µM
BT-549 breast
  TGI: > 100 µM
CAKI-1 renal
  TGI: > 100 µM
CCRF-CEM leukemia
  TGI: > 100 µM
COLO 205 colon
  TGI: > 100 µM
DU-145 prostate
  TGI: > 100 µM
EKVX NSCLC
  TGI: > 100 µM
HCC-2998 colon
  TGI: > 100 µM
HCT-116 colon
  TGI: > 100 µM
HCT-15 colon
  TGI: > 100 µM
HL-60(TB) leukemia
  TGI: > 100 µM
HOP-62 NSCLC
  TGI: > 100 µM
HOP-92 NSCLC
  TGI: > 100 µM
HS 578T breast
  TGI: > 100 µM
HT29 colon
  TGI: > 100 µM
IGROV1 ovarian
  TGI: > 100 µM
K-562 leukemia
  TGI: > 100 µM
KM12 colon
  TGI: > 100 µM
LOX IMVI melanoma
  TGI: > 100 µM
M14 melanoma
  TGI: > 100 µM
MALME-3M melanoma
  TGI: > 100 µM
MCF7 breast
  TGI: > 100 µM
MDA-MB-231 breast
  TGI: > 100 µM
MDA-MB-435
  TGI: > 100 µM
MDA-N
  TGI: > 100 µM
MOLT-4 leukemia
  TGI: > 100 µM
NCI-H226 lung
  TGI: > 100 µM
NCI-H23 lung
  TGI: > 100 µM
NCI-H460 lung
  TGI: > 100 µM
NCI-H522 lung
  TGI: > 100 µM
NCI/ADR-RES ovarian
  TGI: > 100 µM
OVCAR-3 ovarian
  TGI: > 100 µM
OVCAR-4 ovarian
  TGI: > 100 µM
OVCAR-5 ovarian
  TGI: > 100 µM
OVCAR-8 ovarian
  TGI: > 100 µM
PC-3 prostate
  TGI: > 100 µM
RPMI-8226 leukemia
  TGI: > 100 µM
RXF 393 renal
  TGI: > 100 µM
SF-268 CNS
  TGI: > 100 µM
SF-295 CNS
  TGI: > 100 µM
SF-539 CNS
  TGI: > 100 µM
SK-MEL-2 melanoma
  TGI: > 100 µM
SK-MEL-28 melanoma
  TGI: > 100 µM
SK-MEL-5 melanoma
  TGI: > 100 µM
SK-OV-3 ovarian
  TGI: > 100 µM
SN12C renal
  TGI: > 100 µM
SNB-19 CNS
  TGI: > 100 µM
SW-620 colon
  TGI: > 100 µM
T-47D breast
  TGI: > 100 µM
TK-10 renal
  TGI: > 100 µM
U251 CNS
  TGI: > 100 µM
UACC-257 melanoma
  TGI: > 100 µM
UO-31 renal
  TGI: > 100 µM
